Assay results from patent US7446119B2, “Miticidal triazolidine derivatives” (Crompton Corporation, priority 2005, dated 2008).

Assays:
Tetranychus urticae Koch [1] = test: Mite adulticide pre-infection test (MI); type: in vivo; details: cowpea plants sprayed to run off with 300 ppm, adult mites transferred one day after treatment, examined five days later
Description: The remaining examples relate to the miticidal use of the compounds of this invention. In all these examples, a stock solution for the compounds was prepared at 3000 ppm by dissolving each compound to be tested in acetone with 0.67% Tween (v/v), a wetting agent. […] For each example that follows, this stock solution was used and the specificized dilutions made. All the tests discussed below, which involved treatment with compounds of this invention were always repeated with controls, in which the active compound was not provided, to permit a comparison upon which the percent control was calculated. One day before treatment of cowpea primary leaves with the test solutions, rings of tree tanglefoot were applied to each of two cowpea primary leaves, one from each of two plants in a pot. For the mite adulticide pre-infection tests, plants were sprayed to run off with a 300 ppm solution diluted from the 3000 ppm stock solution. One day following treatment of the plants with the test solution, groups of approximately 25 adult mites were transferred into the rings. Five days later these rings were examined for live mites remaining on the leaves. The percent control was estimated based on the number of mites surviving on the control plants.

Tetranychus urticae Koch [2] = test: Mite ovicide test (MIOV); type: in vivo; details: mite eggs on cowpea leaves, sprayed to run off with 100 ppm, examined nine days after treatment, based on unhatched eggs
Description: The remaining examples relate to the miticidal use of the compounds of this invention. In all these examples, a stock solution for the compounds was prepared at 3000 ppm by dissolving each compound to be tested in acetone with 0.67% Tween (v/v), a wetting agent. […] For each example that follows, this stock solution was used and the specificized dilutions made. All the tests discussed below, which involved treatment with compounds of this invention were always repeated with controls, in which the active compound was not provided, to permit a comparison upon which the percent control was calculated. One day before treatment of cowpea primary leaves with the test solutions, rings of tree tanglefoot were applied to each of two cowpea primary leaves, one from each of two plants in a pot. For the mite ovicide tests, groups of adult mites (Tetranychus urticae Koch) were transferred into the rings one day before treatment and the females were allowed to deposit eggs until one hour before treatment, at which point all the adults were removed. The plants were then sprayed to run off with a 100 ppm solution diluted from the 3000 ppm stock solution. Nine days following treatment the ovicide rings were examined for unhatched eggs and living immature mites. The percent control was estimated based on the number of unhatched eggs.

COc1ccc(-c2ccccc2)cc1N1CN(C)CN1C(=O)OC(C)C [Compound 1, 1-methylethyl 2-(4-methoxy-[1,1′-biphenyl]-3-yl)-4-methyl-1,2,4-triazolidine-1-carboxylate]
Percent Control MI (Tetranychus urticae Koch [1]): 100%
Percent Control MIOV (Tetranychus urticae Koch [2]): 100%
